Experimental data: patent publication US20250295680A1, “NOVEL DUTOGLIPTIN FORMULATIONS AND THEIR PREPARATION” (Recardio Inc., priority 2022, published 2025)

Assay: Solubility of fatty acid sodium salts and salt precipitation/anion exchange with Dutogliptin tartrate
Format: physicochemical
Conditions: for Solubility 2-8° C. / Solubility 25° C.: volume for the stated amount of substance (0.41 mmol Dutogliptin tartrate, 0.83 mmol fatty acid salts); for Precipitation after addition of Dutogliptin tartrate solution: 100 mg/ml Dutogliptin tartrate solution, 2-8° C.
Experimental: Assuming that the ion lattice of Dutogliptin tartrate (dissolved in water) is pulled apart so that the individual Dutogliptin and tartrate ions are in solution, an exchange should take place by adding excess fatty acid anions. The resulting hydrophobic salt should form and precipitate due to reduced solubility.
To promote the exchange, the salts, which were dissolved at room temperature, were cooled to 2-8° C. after the addition of Dutogliptin tartrate and stirred overnight.
Five different physiologic fatty acids (as sodium salts) were prepared by anion exchange of the tartrates with a double molar addition of the salts at a reduced temperature (reduced Dutogliptin tartrate solubility).

[1] = listed as sodium cholate, hydrate

Row | Compound | Solubility 2-8° C. | Solubility 25° C. | Precipitation after addition of Dutogliptin tartrate solution (hydrate) | Precipitation after addition of Dutogliptin tartrate solution [1] | Solubility 2-8° C. (hydrate) | Solubility 2-8° C. [1]
1 | CCCCCCCCCCCCCC(=O)[O-].[Na+] [Sodium Myristate] | not soluble | >10 mL | – | – | – | –
2 | C[C@H](CCC(=O)[O-])[C@H]1CC[C@H]2[C@@H]3[C@H](O)C[C@@H]4C[C@H](O)CC[C@]4(C)[C@H]3C[C@H](O)[C@]12C.O.[Na+] [Sodium cholate hydrate] | – | 5 mL | no precipitation | no visual evidence of turbidity or precipitation | 5 mL, clear | remained sufficient soluble
3 | CCCCCCCCCCCC(=O)[O-].[Na+] [Sodium Laurate] | not soluble | 10 mL | – | – | – | –
